Data reported in patent US10626144B2, “Peptide derivatives and uses thereof” (Nosopharm, priority 2014, dated 2020).
Numbered stars: 1 amine (or outer) side, 2 acyl side, 3 side chain; on linkers, the order of the positions; unused ones are H or OH. Square brackets hold non-standard residues; d marks the D form. Peptide text beside a SMILES is read from it. * marks the point of attachment. Pro(trans-4-F) = O=C(O)[C@@H]1C[C@@H](F)CN1; Abu(4,4,4-F3) = N[C@@H](CC(F)(F)F)C(=O)O; Phe(4-CN) = N#Cc1ccc(C[C@H](N)C(=O)O)cc1; Phe(3-F) = N[C@@H](Cc1cccc(F)c1)C(=O)O; Phe(3-Me) = Cc1cccc(C[C@H](N)C(=O)O)c1; Dab(3S-OH) = NC[C@H](O)[C@H](N)C(=O)O; X4 = N=C(N)NCC/C=C(/N[*:1])C(=O)[*:2]; ΔZArg = N=C(N)NCC/C=C(\N)C(=O)O; dOrn = NCCC[C@@H](N)C(=O)O; Dab = NCC[C@H](N)C(=O)O; NH(CH2)5NH2 = NCCCCCN*; NH(CH2)4NH2 = NCCCCN*

How the values were obtained:
Experiment in all cases: MIC, broth microdilution (CLSI), reference strain
Settings in all cases: CAMHB
[1] = test system: Acinetobacter baumannii ATCC 19606
[2] = test system: Pseudomonas aeruginosa ATCC 27853
[3] = test system: Escherichia coli ATCC 25922
[4] = test system: Staphylococcus aureus ATCC 13709

Row | Structure (SMILES) | Ab: MIC Acinetobacter baumannii ATCC 19606 [1] | Pa: MIC Pseudomonas aeruginosa ATCC 27853 [2] | Ec: MIC Escherichia coli ATCC 25922 [3] | Sa: MIC Staphylococcus aureus ATCC 13709 [4]
1 | N=C(N)NCC/C=C(\NC(=O)[C@H](CCCCN)NC(=O)[C@H](Cc1cccc(F)c1)NC(=O)[C@@H]1CCCN1C(=O)[C@@H](CCCN)NC(=O)CNC(=O)[C@H](CCN)NC(=O)[C@@H](NC(=O)[C@@H](N)CCCCN)[C@@H](O)CN)C(=O)O [21.7] (H-K[Dab(3S-OH)][Dab]G[dOrn]P[Phe(3-F)]K[ΔZArg]-OH) | − (>32 μg/mL) | − (>32 μg/mL) | ++ (≤8 μg/mL) | ++ (≤8 μg/mL)
2 | Cc1cccc(C[C@H](NC(=O)[C@@H]2CCCN2C(=O)[C@@H](CCCN)NC(=O)CNC(=O)[C@H](CCN)NC(=O)[C@@H](NC(=O)[C@@H](N)CCCCN)[C@@H](O)CN)C(=O)N[C@@H](CCCCN)C(=O)N/C(=C\CCNC(=N)N)C(=O)O)c1 [21.8] (H-K[Dab(3S-OH)][Dab]G[dOrn]P[Phe(3-Me)]K[ΔZArg]-OH) | − (>32 μg/mL) | − (>32 μg/mL) | ++ (≤8 μg/mL) | ++ (≤8 μg/mL)
3 | N#Cc1ccc(C[C@H](NC(=O)[C@@H]2CCCN2C(=O)[C@@H](CCCN)NC(=O)CNC(=O)[C@H](CCN)NC(=O)[C@@H](NC(=O)[C@@H](N)CCCCN)[C@@H](O)CN)C(=O)N[C@@H](CCCCN)C(=O)N/C(=C\CCNC(=N)N)C(=O)O)cc1 [21.9] (H-K[Dab(3S-OH)][Dab]G[dOrn]P[Phe(4-CN)]K[ΔZArg]-OH) | − (>32 μg/mL) | − (>32 μg/mL) | ++ (≤8 μg/mL) | ++ (≤8 μg/mL)
4 | COc1ccc(C[C@H](NC(=O)[C@@H]2CCCN2C(=O)[C@@H](CCCN)NC(=O)CNC(=O)[C@H](CCN)NC(=O)[C@@H](NC(=O)[C@@H](N)CCCCN)[C@@H](O)CN)C(=O)N[C@@H](CCCCN)C(=O)N/C(=C\CCNC(=N)N)C(=O)O)cc1 [21.10] (H-K[Dab(3S-OH)][Dab]G[dOrn]PY(Me)K[ΔZArg]-OH) | − (>32 μg/mL) | − (>32 μg/mL) | ++ (≤8 μg/mL) | ++ (≤8 μg/mL)
5 | N=C(N)NCC/C=C(\NC(=O)[C@H](CCCCN)NC(=O)[C@H](CC(F)(F)F)NC(=O)[C@@H]1CCCN1C(=O)[C@@H](CCCN)NC(=O)CNC(=O)[C@H](CCN)NC(=O)[C@@H](NC(=O)[C@@H](N)CCCCN)[C@@H](O)CN)C(=O)O [21.11] (H-K[Dab(3S-OH)][Dab]G[dOrn]P[Abu(4,4,4-F3)]K[ΔZArg]-OH) | − (>32 μg/mL) | − (>32 μg/mL) | ++ (≤8 μg/mL) | ++ (≤8 μg/mL)
6 | N=C(N)NCC/C=C(\NC(=O)[C@H](CCCCN)NC(=O)[C@H](Cc1c[nH]c2ccccc12)NC(=O)[C@@H]1CCCN1C(=O)[C@@H](CCCN)NC(=O)CNC(=O)[C@H](CCN)NC(=O)[C@@H](NC(=O)[C@@H](N)CCCCN)[C@@H](O)CN)C(=O)O [21.12] (H-K[Dab(3S-OH)][Dab]G[dOrn]PWK[ΔZArg]-OH) | − (>32 μg/mL) | − (>32 μg/mL) | ++ (≤8 μg/mL) | ++ (≤8 μg/mL)
7 | N=C(N)NCC/C=C(\NC(=O)[C@H](CCCCN)NC(=O)[C@H](Cc1cnc[nH]1)NC(=O)[C@@H]1CCCN1C(=O)[C@@H](CCCN)NC(=O)CNC(=O)[C@@H](NC(=O)[C@@H](NC(=O)[C@@H](N)CCCCN)[C@@H](O)CN)[C@@H](O)CN)C(=O)N[C@H](CCCCN)C(=O)NCCCCN [22.1] (H-K[Dab(3S-OH)][Dab(3S-OH)]G[dOrn]PHK[ΔZArg][dK]-{NH(CH2)4NH2}) | + (≤32 μg/mL) | ++ (≤8 μg/mL) | ++ (≤8 μg/mL) | ++ (≤8 μg/mL)
8 | N=C(N)NCC/C=C(\NC(=O)[C@H](CCCCN)NC(=O)[C@H](Cc1cnc[nH]1)NC(=O)[C@@H]1CCCN1C(=O)[C@@H](CCCN)NC(=O)CNC(=O)[C@@H](NC(=O)[C@@H](NC(=O)[C@@H](N)CCCCN)[C@@H](O)CN)[C@@H](O)CN)C(=O)NCCCCCN [22.2] (H-K[Dab(3S-OH)][Dab(3S-OH)]G[dOrn]PHK[ΔZArg]-{NH(CH2)5NH2}) | − (>32 μg/mL) | + (≤32 μg/mL) | ++ (≤8 μg/mL) | ++ (≤8 μg/mL)
9 | N=C(N)NCC/C=C(\NC(=O)[C@H](CCCCN)NC(=O)[C@H](Cc1cnc[nH]1)NC(=O)[C@@H]1CCCN1C(=O)[C@@H](CCCN)NC(=O)CNC(=O)[C@@H](NC(=O)[C@@H](NC(=O)[C@H](N)CCCCN)[C@@H](O)CN)[C@@H](O)CN)C(=O)N[C@@H](CCCCN)C(=O)NCCCCN [22.6] (H-[dK][Dab(3S-OH)][Dab(3S-OH)]G[dOrn]PHK[ΔZArg]K-{NH(CH2)4NH2}) | − (>32 μg/mL) | − (>32 μg/mL) | + (≤32 μg/mL) | ++ (≤8 μg/mL)
10 | N=C(N)NCC/C=C(/NC(=O)[C@H](CCCCN)NC(=O)[C@H](Cc1cnc[nH]1)NC(=O)[C@@H]1CCCN1C(=O)[C@@H](CCCN)NC(=O)CNC(=O)[C@@H](NC(=O)[C@@H](NC(=O)[C@@H](N)CCCCN)[C@@H](O)CN)[C@@H](O)CN)C(=O)N[C@@H](CCCCN)C(=O)NCCCCN [22.7] (H-K[Dab(3S-OH)][Dab(3S-OH)]G[dOrn]PHK[X4]K-{NH(CH2)4NH2}) | + (≤32 μg/mL) | ++ (≤8 μg/mL) | ++ (≤8 μg/mL) | ++ (≤8 μg/mL)
11 | N=C(N)NCC/C=C(\NC(=O)[C@H](CCCCN)NC(=O)[C@H](Cc1cnc[nH]1)NC(=O)[C@@H]1CCCN1C(=O)[C@@H](CCCN)NC(=O)CNC(=O)[C@@H](NC(=O)[C@@H](NC(=O)[C@@H](N)CCCCN)[C@@H](O)CN)[C@@H](O)CN)C(=O)N[C@@H](CCCCN)C(N)=O [22.8] (H-K[Dab(3S-OH)][Dab(3S-OH)]G[dOrn]PHK[ΔZArg]K-NH2) | + (≤32 μg/mL) | ++ (≤8 μg/mL) | ++ (≤8 μg/mL) | ++ (≤8 μg/mL)
12 | C[C@H](NC(=O)/C(=C/CCNC(=N)N)NC(=O)[C@H](CCCCN)NC(=O)[C@H](Cc1cnc[nH]1)NC(=O)[C@@H]1CCCN1C(=O)[C@@H](CCCN)NC(=O)CNC(=O)[C@@H](NC(=O)[C@@H](NC(=O)[C@@H](N)CCCCN)[C@@H](O)CN)[C@@H](O)CN)C(=O)NCCCCN [22.10] (H-K[Dab(3S-OH)][Dab(3S-OH)]G[dOrn]PHK[ΔZArg]A-{NH(CH2)4NH2}) | − (>32 μg/mL) | + (≤32 μg/mL) | ++ (≤8 μg/mL) | ++ (≤8 μg/mL)
13 | N=C(N)NCC/C=C(\NC(=O)[C@@H](CCCCN)NC(=O)[C@H](Cc1cnc[nH]1)NC(=O)[C@@H]1CCCN1C(=O)[C@@H](CCCN)NC(=O)CNC(=O)[C@@H](NC(=O)[C@@H](NC(=O)[C@@H](N)CCCCN)[C@@H](O)CN)[C@@H](O)CN)C(=O)N[C@@H](CCCCN)C(=O)NCCCCN [22.11] (H-K[Dab(3S-OH)][Dab(3S-OH)]G[dOrn]PH[dK][ΔZArg]K-{NH(CH2)4NH2}) | − (>32 μg/mL) | + (≤32 μg/mL) | ++ (≤8 μg/mL) | ++ (≤8 μg/mL)
14 | N=C(N)NCC/C=C(\NC(=O)[C@H](CCCCN)NC(=O)[C@H](Cc1c[nH]cn1)NC(=O)[C@@H]1CCCN1C(=O)[C@@H](CCCN)NC(=O)CNC(=O)[C@@H](NC(=O)[C@@H](NC(=O)[C@@H](N)CCCCN)[C@@H](O)CN)[C@@H](O)CN)C(=O)N[C@@H](CCCCN)C(=O)NCCCCCN [22.12] (H-K[Dab(3S-OH)][Dab(3S-OH)]G[dOrn]PHK[ΔZArg]K-{NH(CH2)5NH2}; C-terminus assumed) | − (>32 μg/mL) | − (>32 μg/mL) | ++ (≤8 μg/mL) | ++ (≤8 μg/mL)
15 | N=C(N)NCC/C=C(\NC(=O)[C@H](CCCCN)NC(=O)[C@H](Cc1cnc[nH]1)NC(=O)[C@@H]1C[C@@H](F)CN1C(=O)[C@@H](CCCN)NC(=O)CNC(=O)[C@@H](NC(=O)[C@@H](NC(=O)[C@@H](N)CCCCN)[C@@H](O)CN)[C@@H](O)CN)C(=O)N[C@@H](CCCCN)C(=O)NCCCCN [22.13] (H-K[Dab(3S-OH)][Dab(3S-OH)]G[dOrn][Pro(trans-4-F)]HK[ΔZArg]K-{NH(CH2)4NH2}) | − (>32 μg/mL) | ++ (≤8 μg/mL) | + (≤32 μg/mL) | ++ (≤8 μg/mL)
16 | C[C@H](NC(=O)/C(=C/CCNC(=N)N)NC(=O)[C@H](CCCCN)NC(=O)[C@H](Cc1cnc[nH]1)NC(=O)[C@@H]1CCCN1C(=O)[C@@H](CCCN)NC(=O)CNC(=O)[C@@H](NC(=O)[C@@H](NC(=O)[C@@H](N)CCCCN)[C@@H](O)CN)[C@@H](O)CN)C(N)=O [22.14] (H-K[Dab(3S-OH)][Dab(3S-OH)]G[dOrn]PHK[ΔZArg]A-NH2) | − (>32 μg/mL) | − (>32 μg/mL) | ++ (≤8 μg/mL) | ++ (≤8 μg/mL)
17 | N=C(N)NCCC[C@H](NC(=O)[C@H](CCCCN)NC(=O)[C@H](Cc1cnc[nH]1)NC(=O)[C@@H]1CCCN1C(=O)[C@@H](CCCN)NC(=O)CNC(=O)[C@@H](NC(=O)[C@@H](NC(=O)[C@@H](N)CCCCN)[C@@H](O)CN)[C@@H](O)CN)C(=O)N[C@@H](CCCCN)C(=O)NCCCCN [22.17] (H-K[Dab(3S-OH)][Dab(3S-OH)]G[dOrn]PHKRK-{NH(CH2)4NH2}) | − (>32 μg/mL) | − (>32 μg/mL) | + (≤32 μg/mL) | ++ (≤8 μg/mL)
